According to patent US20260042755A1, “GPR6 INVERSE AGONISTS” (MapLight Therapeutics, Inc., priority 2022, published 2026):

Assays:
GPR6 = biological target: T1, GPR6 (Homo sapiens, UniProt P46095); assay: GPR6 antagonist functional cAMP assay (LANCE Ultra cAMP TR-FRET, CHO cells stably expressing GPR6); type: cell-based
T1 construct: expressed in transfected cells; host or cells: CHO cells
Procedure: (§1) Example 56. GPR6 and GPR3 Antagonist Functional cAMP Assay
(§2) CHO cells stably expressing GPR6 or GPR3 receptors were dissociated from cell culture flasks and incubated for 2 h at 37° C. in a 10 cm dish in a humidified incubator. Cells were dissociated, counted to have 1e6 cells/mL (4.5e6 cells needed/384-well plate), washed once in starved media, than in D-PBS and finally suspended in assay buffer (Krebs-Ringer Bicarbonate Buffer with 1800 mg/L glucose, without calcium chloride and sodium bicarbonate (Sigma) in the presence of 0.1% BSA and 150 μM of Ro 20-1724 Phosphodiesterase inhibitor).
(§3) Cells in suspension from above were plated in 384-well white Optiplate (PerkinElmer) at 10,000 cells/well/10 μl, briefly centrifuged prior direct addition of compounds ([…]) in 10 mM DMSO using a Tecan D300e Digital Dispenser, final DMSO in each well was normalized to 0.1%. Cells were incubated in the presence of compounds for 45 min at 37° C. in a humidified incubator.
(§4) To measure cAMP levels, LANCE® Ultra cAMP assay (Perkin Elmer), a homogeneous time-resolved fluorescence resonance energy transfer (TR-FRET) immunoassay was used following manufacturer's recommendations. Plates were shaken for 1 h at room temperature before reading on a Tecan InfiniteF200Pro multi-mode plate reader using standard FRET settings (Excitation 340 nm, Emission at 615 nm). FRET values were reported as readings obtained at 665 nm. Data were normalized to DMSO (0.1%) and reference compounds (100%) and fit to a 4-parameter logistical fit to generate antagonist IC50s.

GPR3 = biological target: T2, GPR3 (Homo sapiens, UniProt P46089); assay: GPR3 antagonist functional cAMP assay (LANCE Ultra cAMP TR-FRET, CHO cells stably expressing GPR3); type: cell-based
T2 construct: expressed in transfected cells; host or cells: CHO cells
T2 sequence (P46089 whole entry, species assumed): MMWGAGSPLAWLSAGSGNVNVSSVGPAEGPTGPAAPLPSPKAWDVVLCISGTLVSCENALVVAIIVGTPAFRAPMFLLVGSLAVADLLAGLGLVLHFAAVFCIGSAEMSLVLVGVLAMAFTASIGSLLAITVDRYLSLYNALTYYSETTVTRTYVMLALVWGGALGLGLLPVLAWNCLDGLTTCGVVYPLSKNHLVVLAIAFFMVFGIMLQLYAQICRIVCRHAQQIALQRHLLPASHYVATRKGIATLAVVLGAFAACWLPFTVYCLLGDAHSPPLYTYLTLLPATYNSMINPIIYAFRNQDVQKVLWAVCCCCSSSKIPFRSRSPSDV
Procedure: as §1, §2, §3, §4

[1] = procedure as described in Example 24
[2] = CHO cells stably expressing GPR6, cAMP assay (Example 24)
[3] = CHO cells stably expressing GPR3, cAMP assay (Example 24)
[4] = CHO cells stably expressing GPR6, cAMP assay
[5] = CHO cells stably expressing GPR3, cAMP assay

T1 sequence (P46095 whole entry): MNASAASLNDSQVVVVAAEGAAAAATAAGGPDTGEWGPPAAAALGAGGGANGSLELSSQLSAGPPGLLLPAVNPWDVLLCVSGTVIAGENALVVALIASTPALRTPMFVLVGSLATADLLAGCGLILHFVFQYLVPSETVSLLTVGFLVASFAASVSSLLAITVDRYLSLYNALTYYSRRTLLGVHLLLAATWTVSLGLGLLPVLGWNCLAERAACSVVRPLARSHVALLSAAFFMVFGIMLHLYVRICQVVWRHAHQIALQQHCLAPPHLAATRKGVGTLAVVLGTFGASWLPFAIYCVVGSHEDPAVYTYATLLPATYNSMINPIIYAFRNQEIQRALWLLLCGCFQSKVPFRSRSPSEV

CS(=O)(=O)c1ccc(CN2CCN(c3nc4ccncc4nc3-c3cn[nH]c3)CC2)c(F)c1 [Compound 22, 1-[(2-fluoro-4-methanesulfonylphenyl)methyl]-4-[3-(1H-pyrazol-4-yl)pyrido[3,4-b]pyrazin-2-yl]piperazine]
IC50 (GPR6; [1]): ≥ 30000 nM | IC50 (GPR3; [1]): 100 to 1000 nM

Cn1cc(-c2nc3cnccc3nc2N2CCN(Cc3ccc(F)cc3F)C(=O)C2)cn1 [Compound 127, 1-[(2,4-difluorophenyl)methyl]-4-[3-(1-methyl-1H-pyrazol-4-yl)pyrido[3,4-b]pyrazin-2-yl]piperazin-2-one]
IC50 (GPR6; [2]): ≥ 30000 nM | IC50 (GPR3; [3]): ≥ 30000 nM

CCn1cc(-c2nc3c(nc2N2CCC(Oc4cc(Cl)ccc4Cl)CC2)CCN(C(C)=O)C3)cn1 [Compound 400, 1-{2-[4-(2,5-dichlorophenoxy)piperidin-1-yl]-3-(1-ethyl-1H-pyrazol-4-yl)-5H,6H,7H,8H-pyrido[3,4-b]pyrazin-6-yl}ethan-1-one]
IC50 (GPR6; [2]): 100 to 1000 nM | IC50 (GPR3; [3]): 1000 to 30000 nM

CC(=O)N1CCc2nc(N3CCC(Oc4ccc(F)cc4F)CC3)c(-c3cccc(N(C)C)n3)nc2C1 [Compound 48, 1-{2-[4-(2,4-difluorophenoxy)piperidin-1-yl]-3-[6-(dimethylamino)pyridin-2-yl]-5H,6H,7H,8H-pyrido[3,4-b]pyrazin-6-yl}ethan-1-one]
IC50 (GPR6; [1]): 1000 to 30000 nM | IC50 (GPR3; [1]): 1000 to 30000 nM

CC(C)(O)[C@@](C)(O)c1cc2nc(-c3cnn(CF)c3)c(N3CCN(Cc4ccccc4F)CC3)nc2cn1 (single isomer, unassigned) [Compound 715]
IC50 (GPR6; procedure of Example 24): 100 to 1000 nM | IC50 (GPR3; procedure of Example 24): 1000 to 30000 nM

COCC(=O)N1CCc2nc(N3CCC(Oc4ccc(F)cc4F)CC3)c(-c3cnn(C4CCCCO4)c3)nc2C1 (centres unmarked) [Compound 201, 1-{2-[4-(2,4-difluorophenoxy)piperidin-1-yl]-3-[1-(oxan-2-yl)-1H-pyrazol-4-yl]-5H,6H,7H,8H-pyrido[3,4-b]pyrazin-6-yl}-2-methoxyethan-1-one]
IC50 (GPR6; [2]): 1000 to 30000 nM | IC50 (GPR3; [3]): 1000 to 30000 nM

CC(C)(O)[C@](C)(O)c1cc2nc(N3CCC(Oc4ccc(F)cc4F)CC3)c(-c3cnn(C4CC4)c3)nc2cn1 (single isomer, unassigned) [Compound 664]
IC50 (GPR6; procedure of Example 24): 100 to 1000 nM | IC50 (GPR3; procedure of Example 24): 1000 to 30000 nM

CC(=O)N1CCc2nc(N3CCC(Oc4ccccc4F)CC3)c(-c3cnn(C)c3)nc2C1 [Compound 420, 1-{2-[4-(2-fluorophenoxy)piperidin-1-yl]-3-(1-methyl-1H-pyrazol-4-yl)-5H,6H,7H,8H-pyrido[3,4-b]pyrazin-6-yl}ethan-1-one]
IC50 (GPR6; [2]): 100 to 1000 nM | IC50 (GPR3; [3]): 1000 to 30000 nM

COc1ccc(-c2nc3c(nc2N2CCC(Oc4ccc(F)cc4F)CC2)CCN(C(C)=O)C3)nc1 [Compound 10]
IC50 (GPR6; [1]): 100 to 1000 nM | IC50 (GPR3; [1]): 1000 to 30000 nM

COC(=O)N1CCc2nc(N3CCC(Oc4ccc(F)cc4F)CC3)c(-c3ccc(F)c(N)n3)nc2C1 [Compound 611, 6-{2-[4-(2,4-difluorophenoxy)-1-piperidyl]-6-methoxycarbonyl-5,6,7,8-tetrahydro-1,4,6-triaza-3-naphthyl}-3-fluoro-2-pyridylamine]
IC50 (GPR6; procedure of Example 24): < 100 nM | IC50 (GPR3; procedure of Example 24): 1000 to 30000 nM

Cn1cc(-c2nc3cnccc3nc2N2CCN(CC3CCCCO3)CC2)cn1 (centres unmarked) [Compound 246, 1-[3-(1-methyl-1H-pyrazol-4-yl)pyrido[3,4-b]pyrazin-2-yl]-4-[(oxan-2-yl)methyl]piperazine]
IC50 (GPR6; [2]): ≥ 30000 nM | IC50 (GPR3; [3]): ≥ 30000 nM

COC[C@H]1C[C@@H]1c1nc2c(nc1N1CCC(Oc3ccc(F)cc3F)CC1)CCN(C(C)=O)C2 [Compound 546, 1-{3-[(1S,2S)-2-(methoxymethyl)cyclopropyl]-2-[4-(2,4-difluorophenoxy)-1-piperidyl]-5,6,7,8-tetrahydro-1,4,6-triaza-6-naphthyl}-1-ethanone]
IC50 (GPR6; [4]): < 100 nM | IC50 (GPR3; [5]): 1000 to 30000 nM

CC(=O)N1CCc2nc(N3CCC(C(C)(O)c4ccc(F)cc4F)CC3)c(-c3cnn(C)c3)nc2C1 (centres unmarked) [Compound 558, 1-(2-{4-[1-(2,4-difluorophenyl)-1-hydroxyethyl]-1-piperidyl}-3-(1-methyl-4-pyrazolyl)-5,6,7,8-tetrahydro-1,4,6-triaza-6-naphthyl)-1-ethanone]
IC50 (GPR6; [4]): 1000 to 30000 nM | IC50 (GPR3; [5]): 100 to 1000 nM

Fc1ccc(OC2CCN(c3nc4ccncc4nc3-c3cnc[nH]3)CC2)c(F)c1 [Compound 54, 4-(2,4-difluorophenoxy)-1-[3-(1H-imidazol-5-yl)pyrido[3,4-b]pyrazin-2-yl]piperidine]
IC50 (GPR6; [1]): 1000 to 30000 nM | IC50 (GPR3; [1]): 1000 to 30000 nM

CCn1cc(-c2nc3cnc(CC(C)(C)O)cc3nc2N2CCC(Oc3ccc(F)cc3F)CC2)cn1 [Compound 706, 1-{2-[4-(2,4-difluorophenoxy)-1-piperidyl]-3-(1-ethyl-4-pyrazolyl)-1,4,6-triaza-7-naphthyl}-2-methyl-2-propanol]
IC50 (GPR6; procedure of Example 24): 100 to 1000 nM | IC50 (GPR3; procedure of Example 24): 1000 to 30000 nM

COc1ccc(C(=O)N2CCN(c3nc4c(nc3-c3cnn(C)c3)CN(C(C)=O)CC4)CC2)c(F)c1 [Compound 254, 1-{2-[4-(2-fluoro-4-methoxybenzoyl)piperazin-1-yl]-3-(1-methyl-1H-pyrazol-4-yl)-5H,6H,7H,8H-pyrido[3,4-b]pyrazin-6-yl}ethan-1-one]
IC50 (GPR6; [2]): 1000 to 30000 nM | IC50 (GPR3; [3]): 1000 to 30000 nM

CC(C)(O)C(=O)c1cc2nc(N3CCC(Oc4ccc(F)cc4F)CC3)c(-c3cnn(CF)c3)nc2cn1 [Compound 621, 1-{2-[4-(2,4-difluorophenoxy)-1-piperidyl]-3-[1-(fluoromethyl)-4-pyrazolyl]-1,4,6-triaza-7-naphthyl}-2-hydroxy-2-methyl-1-propanone]
IC50 (GPR6; procedure of Example 24): 100 to 1000 nM | IC50 (GPR3; procedure of Example 24): 1000 to 30000 nM

Cn1cc(-c2nc3cnccc3nc2N2CCc3c(cnn3-c3ccc(F)cc3F)C2)cn1 [Compound 788, 1-(2,4-difluorophenyl)-5-[3-(1-methyl-4-pyrazolyl)-1,4,6-triaza-2-naphthyl]-4,5,6,7-tetrahydro-1H-1,2,5-triazaindene]
IC50 (GPR6; procedure of Example 24): ≥ 30000 nM | IC50 (GPR3; procedure of Example 24): ≥ 30000 nM

COC(=O)[C@H]1C[C@@H]1c1cc2nc(N3CCC(Oc4ccc(F)cc4F)CC3)c(-c3cnn(C)c3)nc2cn1 (single isomer, unassigned) [Compound 733]
IC50 (GPR6; procedure of Example 24): 100 to 1000 nM | IC50 (GPR3; procedure of Example 24): 1000 to 30000 nM

COc1cccnc1-c1nc2c(nc1N1CCC(Oc3ccc(F)cc3F)CC1)CCN(C(C)=O)C2 [Compound 80, 1-{2-[4-(2,4-difluorophenoxy)piperidin-1-yl]-3-(3-methoxypyridin-2-yl)-5H,6H,7H,8H-pyrido[3,4-b]pyrazin-6-yl}ethan-1-one]
IC50 (GPR6; [2]): ≥ 30000 nM | IC50 (GPR3; [3]): 1000 to 30000 nM

CC(=O)N1CCc2nc(N3CCC(Oc4ccc(F)cc4F)CC3)c(-c3ccn(C(=O)OC(C)(C)C)c3)nc2C1 [Compound 53, tert-butyl 3-{6-acetyl-2-[4-(2,4-difluorophenoxy)piperidin-1-yl]-5H,6H,7H,8H-pyrido[3,4-b]pyrazin-3-yl}-1H-pyrrole-1-carboxylate]
IC50 (GPR6; [1]): 1000 to 30000 nM | IC50 (GPR3; [1]): 100 to 1000 nM

CC(=O)N1CCc2nc(N3CCN(Cc4cn(C)cn4)CC3)c(-c3cnn(C)c3)nc2C1 [Compound 528, 1-(2-{4-[(1-methyl-4-imidazolyl)methyl]-1-piperazinyl}-3-(1-methyl-4-pyrazolyl)-5,6,7,8-tetrahydro-1,4,6-triaza-6-naphthyl)-1-ethanone]
IC50 (GPR6; [4]): ≥ 30000 nM | IC50 (GPR3; [5]): ≥ 30000 nM

Cn1cc(-c2nc3cnc([C@@H](O)C(C)(C)O)cc3nc2N2CCN(Cc3ccc(F)cc3F)CC2)cn1 (single isomer, unassigned) [Compound 261]
IC50 (GPR6; [2]): 100 to 1000 nM | IC50 (GPR3; [3]): 1000 to 30000 nM

CCn1cc(-c2nc3cnc(C(=O)C(C)(C)O)cc3nc2N2CCN(Cc3ccc(F)cc3F)CC2)cn1 [Compound 624, 1-(2-{4-[(2,4-difluorophenyl)methyl]-1-piperazinyl}-3-(1-ethyl-4-pyrazolyl)-1,4,6-triaza-7-naphthyl)-2-hydroxy-2-methyl-1-propanone]
IC50 (GPR6; procedure of Example 24): 100 to 1000 nM | IC50 (GPR3; procedure of Example 24): 1000 to 30000 nM

CC(=O)N1CCc2nc(N3CCC(Oc4ccccc4F)C3)c(-c3cnn(C)c3)nc2C1 (centres unmarked) [Compound 340, 1-{2-[3-(2-fluorophenoxy)pyrrolidin-1-yl]-3-(1-methyl-1H-pyrazol-4-yl)-5H,6H,7H,8H-pyrido[3,4-b]pyrazin-6-yl}ethan-1-one]
IC50 (GPR6; procedure of Example 24): 1000 to 30000 nM | IC50 (GPR3; procedure of Example 24): ≥ 30000 nM

CC(C)(O)[C@H](O)c1cc2nc(-c3cnn(CF)c3)c(N3CCC(Cc4ccc(F)cc4F)CC3)nc2cn1 (single isomer, unassigned) [Compound 787]
IC50 (GPR6; procedure of Example 24): < 100 nM | IC50 (GPR3; procedure of Example 24): < 100 nM

COCCOc1cc2nc(N3CCC(Oc4ccc(F)cc4F)CC3)c(-c3cnn(C)c3)nc2cn1 [Compound 381, 4-(2,4-difluorophenoxy)-1-[7-(2-methoxyethoxy)-3-(1-methyl-1H-pyrazol-4-yl)pyrido[3,4-b]pyrazin-2-yl]piperidine]
IC50 (GPR6; [2]): 100 to 1000 nM | IC50 (GPR3; [3]): 1000 to 30000 nM

CC(=O)N1CCc2nc(N3CCC([C@H](F)c4ccc(F)cc4F)CC3)c(-c3cnn(C)c3)nc2C1 (single isomer, unassigned) [Compound 658]
IC50 (GPR6; procedure of Example 24): < 100 nM | IC50 (GPR3; procedure of Example 24): 100 to 1000 nM
